Experimental data taken from article PMC12670317, “Targeted NAT10 Degradation by PROTAC NP1192 Suppresses Hypoxia-Adaptive Glycolysis and Reinvigorates CD8^+ Effector T‑Cell Function for Synergistic Cancer Immunotherapy” (ACS Central Science, 2025).
One block for each compound: values may come before it. Where a SMILES comes first, the peptide text is derived from it. The star is where a group is joined. Cbz = O=C(OCc1ccccc1)*

How the values were obtained:
NAT10 = target: T1, NAT10 (Homo sapiens, UniProt Q9H0A0); assay: NAT10 degradation in SiHa cells, Western blot; type: cell-based; conditions: SiHa cells; for effect of cotreatment on NP1192-mediated degradation of NAT10: inhibitor 200 nM for 12 h, then NP1192 for 36 h
T1 construct: depletion of total NAT10 protein in SiHa (human) and U14 (murine) CCa cell lines; endogenous in cells; host or cells: SiHa (human cervical cancer cell line)
T1 sequence (Q9H0A0 1-1025): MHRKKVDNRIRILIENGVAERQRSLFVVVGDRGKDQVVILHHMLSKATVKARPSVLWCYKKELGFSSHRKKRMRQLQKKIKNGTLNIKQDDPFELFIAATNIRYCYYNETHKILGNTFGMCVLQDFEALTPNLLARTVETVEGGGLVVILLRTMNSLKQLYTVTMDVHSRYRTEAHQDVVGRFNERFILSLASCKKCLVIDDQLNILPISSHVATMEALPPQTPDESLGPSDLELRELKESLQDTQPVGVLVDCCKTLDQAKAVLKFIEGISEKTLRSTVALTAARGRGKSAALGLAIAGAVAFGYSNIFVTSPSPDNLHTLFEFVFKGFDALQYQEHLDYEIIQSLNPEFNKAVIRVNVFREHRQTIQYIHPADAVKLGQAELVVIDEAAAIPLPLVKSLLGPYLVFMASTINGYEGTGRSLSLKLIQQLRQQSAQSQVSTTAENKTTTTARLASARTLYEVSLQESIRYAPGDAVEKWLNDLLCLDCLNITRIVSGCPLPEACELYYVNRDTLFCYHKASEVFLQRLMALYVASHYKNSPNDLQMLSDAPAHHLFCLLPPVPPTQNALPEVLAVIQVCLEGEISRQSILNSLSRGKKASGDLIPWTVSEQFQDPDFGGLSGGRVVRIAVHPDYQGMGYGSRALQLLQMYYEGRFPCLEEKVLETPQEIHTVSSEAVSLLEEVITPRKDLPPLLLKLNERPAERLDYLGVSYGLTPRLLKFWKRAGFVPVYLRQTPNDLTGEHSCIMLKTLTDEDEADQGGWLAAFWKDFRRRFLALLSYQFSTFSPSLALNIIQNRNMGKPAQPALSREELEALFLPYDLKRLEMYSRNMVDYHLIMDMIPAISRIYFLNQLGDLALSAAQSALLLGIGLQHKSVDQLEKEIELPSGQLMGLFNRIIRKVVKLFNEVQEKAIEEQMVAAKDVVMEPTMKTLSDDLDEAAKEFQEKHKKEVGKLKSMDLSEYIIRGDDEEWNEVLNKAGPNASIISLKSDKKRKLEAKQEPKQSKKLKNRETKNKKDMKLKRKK
Description: The human CCa cell line SiHa and the normal epithelial foreskin fibroblast line HFF-1 were purchased from the Cell Bank of the Chinese Academy of Sciences. Additionally, murine cervical carcinoma cell line U14 (RRID:CVCL_9U56) was purchased from Boster Company. HFF-1 and U14 cells were cultured in Dulbecco’s modified Eagle’s medium (DMEM) (Gibco, USA) supplemented with 10% heat-inactivated fetal bovine serum (FBS; Gibco, USA), while SiHa cells were incubated in RPMI 1640 medium (Gibco, USA) in a humid atmosphere with 5% CO2 at 37 °C. For hypoxia exposure, the cells were incubated in a sealed culture tank containing 5% CO2 and 0.1% O2 (MGC, Japan) for 36 h.
RIPA lysis buffer (Beyotime, China) mixed with 1% protease inhibitor (Sigma, US) was added to the cells, and a sample of total protein was obtained and then loaded onto an 8% or 12% polyacrylamide gel. The gel was placed in a buffer solution, and an electric current was applied. The separated proteins were subsequently transferred from the gel onto a PVDF membrane. Next, the membrane was blocked with 5% milk for 1 h to prevent nonspecific antibody binding. The membranes were subsequently incubated with anti-NAT10 (1:1000, Abcam, USA), anti-PD-L1 (1:1000, Proteintech, China), anti-HIF-1α (1:1000, Abmart, China), and anti-β-tubulin (1:1000, Proteintech, China) primary antibodies for 12 h. Afterward, the membrane was sequentially washed with 1× TBST and incubated for 1 h with an antimouse secondary antibody (1:6000, Elabscience, China) or antirabbit secondary antibody (1:6000, Elabscience, China). The target proteins were detected via chemiluminescence with a ChemiDoc MP Imaging System (Bio-Rad, US).

SiHa cells [1] = assay: Colony formation assay in SiHa cells; type: cell-based, human; conditions: pretreated 20 μM 36 h, 2 weeks
Description: NAT10^± SiHa cells and SiHa cells treated with DMSO, Remodelin or NP1192 for 36 h were seeded into the wells of a 6-well microplate at identical densities of 2000 or 3000 cells per well. The cells were then incubated in the incubator for at least 2 weeks to form colonies. After the incubation period, the cells were fixed with formalin and then stained with crystal violet. The colonies were then counted via a microscope. The number and size of the colonies in the experimental groups were compared.

[2] = system: CD8+ TILs, M2 macrophages, MDSCs and Treg cells in U14 xenograft tumors; conditions: Figure 7A
Description: U14 cells (1 × 10^7 cells per mouse, approximately 100–150 μL of cell suspension) were implanted subcutaneously into the lateral lower dorsal surface of each mouse. The tumors were allowed to grow for 7 days, and the mice were then administered one of five treatments (group 1: U14 cells + DMSO; group 2: U14 cells + Remodelin; group 3: U14 cells + anti-PD-L1 antibody; group 4: U14 cells + NP1192; group 5: U14 cells + anti-PD-L1 antibody + NP1192). Each group of mice was assigned according to the principles of randomization and the blinding method. Tumors were measured every 2 days, and tumor volume was calculated via the following equation: volume = (width)^2 × length/2. Remodelin and NP1192 were injected into the peritumoral area every 2 days at a dose of 25 mg/kg, and the in vivo antimouse PD-L1 antibody (low endotoxin) was injected every 3 days at a dose of 2.5 mg/kg.
After the mice were euthanized, the tumor and peritumoral tissues were analyzed with an immunoflow kit (BioLegend, USA). The antibodies used for immunoflow cytometry included antihuman/mouse antibodies specific for CD11b-BV711, F4/80-AF647, CD206-PE, CD86-BV605, CD4-CD4-FITC IL-17-17-CY7/CY7, CD25-PE, FOXP3-AF647, CD4-BV605, CD45-PE/CY7, CD11b-BV711 and LY-6G/LY-6C-BV421 (BioLegend catalog no. 321239, RRID:AB_2860843). All data analyses were performed via GraphPad Prism 9, and the data are presented as the mean ± SEMs.

SiHa cells [3] = assay: SiHa cell viability IC50 (CCK-8); type: cell-based, human; conditions: Homo sapiens; parental SiHa cells, 36 h; read-out: IC50, inhibition of SiHa cell viability
Description: NAT10^± SiHa cells and SiHa cells treated with DMSO, Remodelin or NP1192 for 36 h were seeded into the wells of a 96-well microplate at identical densities of 2000 or 3000 cells per well. After the cells adhered to the well surface, 110 μL of a 1:10 mixture of CCK-8 reagent (Meilunbio, China) and RPMI 1640 medium was added to each well. The microplate was then incubated for another 2 h in the incubator, and the mixture was replaced with an equal volume of medium. A microplate reader (BioTek, US) was used to measure the absorption at a wavelength of 450 nm.

[4] = system: Remodelin^Resist SiHa cells; assay: IC50 and resistance index in Remodelin-resistant SiHa cells (CCK-8); type: cell-based, human
Description: We generated Remodelin-resistant (Remodelin^Resist SiHa) and NP1192-resistant (NP1192^Resist SiHa) SiHa CCa cell lines by applying a stepwise dose escalation strategy, as previously described in the literature. To quantitatively assess resistance, we calculated the resistance index for each subline following the established methodologies. Briefly, 3000 cells per well were seeded in 96-well plates and treated with increasing concentrations of Remodelin or NP1192 (0, 10, 50, 100, and 150 μM) for 24 h. Following treatment, 10 μL of CCK-8 reagent was added to each well and incubated for an additional 2 h. Absorbance at 490 nm was measured, and the IC50 values were calculated using GraphPad Prism 9.0. The RI was defined as the ratio of the IC50 in resistant cells to that in parental cells.

NAT10 degradation (NAT10; at 36 h, time course Figure 1G): 20%
NAT10 degradation rate (NAT10; panel TP1–32 at the same time and concentration, Figure 1E): 23%
Structure (SMILES): N#Cc1ccc(-c2csc(N(CCCCC(=O)NCCCNc3cccc4c3C(=O)N(C3CCC(=O)NC3=O)C4=O)N=C3CCCC3)n2)cc1 (stereo not drawn) [NP1149]

Structure (SMILES): CC(C)C[C@@H](C=O)NC(=O)[C@H](CC(C)C)NC(=O)[C@H](CC(C)C)NC(=O)OCc1ccccc1 [MG132, reference compound] (Cbz-Leu-Leu-Leu-aldehyde)
effect of cotreatment on NP1192-mediated degradation of NAT10 (NAT10): significantly impeded

Structure (SMILES): CO/C1=C\C(C)=C\[C@@H](C)[C@@H](O)[C@@H](C)C/C(C)=C/C=C/[C@H](OC)[C@@H]([C@@H](C)[C@@H](O)[C@H](C)[C@@]2(O)C[C@@H](O)[C@H](C)[C@@H](C(C)C)O2)OC1=O [bafilomycin A1, reference compound]
effect of cotreatment on NP1192-mediated degradation of NAT10 (NAT10): no discernible effect

Structure (SMILES): N#Cc1ccc(-c2csc(NN=C3CCCC3)n2)cc1 [Remodelin, reference compound]
colony formation capacity (SiHa cells [1]): minimal suppressive effects
Treg gate ([2]; CD4+CD25+FOXP3+): 0.84%
M2 (M2 macrophages gate) ([2]; CD11b+F4/80+CD206+): 21.24%
MDSC gate ([2]; CD11b+LY-6G+): 58.69%
CD8+ (CD8+ TILs gate) ([2]; tumors after treatment): 0.56%
IC50 (SiHa cells [3]): 10.7 µM
resistance index (RI = IC50 resistant/parental SiHa) ([4]; 497.3/10.67): 46.60
IC50 ([4]; Homo sapiens, Remodelin^Resist SiHa cells): 497 µM
